Values after ≈ are worked out from the molar mass of the structure shown. Read-outs that look alike come from different tables or passages of the source.
Columns and labels:
[1] = cited from earlier work
[2] = soil and water runoff; cited from earlier work
[3] = system: barnacle or mussel larvae; test: biocide-impregnated polymer without outer biostatic layer exposed to larvae; format: in vivo; details: weeks or months later; no outer biostatic layer
From the text: With respect to undesirable effects on the aquatic environment and the benign and beneficial organisms that reside there, the outer biostatic layer is less potentially hazardous both for the chemical and physical reasons mentioned above and shields the water from contact with the more potentially hazardous inner biocidal layer. Also, when an occasional barnacle or mussel larva penetrates the outer layer and touches the inner layer as a juvenile, it is killed quickly and outright on contact. It has been experimentally observed that, when a polymer impregnated with a biocidal biocide such as ivermectin is exposed to barnacle or mussel larvae, and there is no outer biostatic attachment inhibiting polymer layer present, that larvae do attach regardless and grow on the surface of the polymer layer. The organisms with their tiny shells can be seen with a magnifying glass. […] With the present embodiments, the area of the puncture site of the inner layer is microscopic and thus nothing leaks out of the inner layer into the surrounding water.

In the case of `Cc1cccc(C(C)c2cnc[nH]2)c1C` (stereo not shown) [Medetomidine], the water solubility [1] is listed as 186 µg/mL (≈ 929 µM).

For `CC(C)[C@]12O[C@H]1[C@@H]1O[C@]13[C@]1(O[C@H]1C[C@H]1C4=C(CC[C@@]13C)C(=O)OC4)[C@@H]2O` [triptolide], the water solubility [1] is given as 0.017 µg/mL (≈ 0.0472 µM).

In the case of `CC[C@H]1CCC[C@H](O[C@H]2CC[C@H](N(C)C)[C@@H](C)O2)[C@@H](C)C(=O)C2=C[C@@H]3[C@@H](C=C(C)[C@@H]4C[C@@H](O[C@@H]5O[C@@H](C)[C@H](OC)[C@@H](OC)[C@H]5OC)C[C@@H]34)[C@@H]2CC(=O)O1` [spinosad D], the “adsorption coefficient KOC” value [2] is listed as 34,600.

For ivermectin, the “adult barnacles or mussels on the polymer layer” value [3] was “no adult barnacle or mussel adults are seen”.

For spinosad, the “adsorption coefficient KOC” value [2] is listed as 34,600.

For zinc pyrithione, the water solubility ([1]; metal pyrithione salts) is given as “about 12 mg per L”.

For `[Ag+].[O-][n+]1ccccc1[S-]` [silver pyrithione], the water solubility ([1]; silver pyrithione) is given as “about 37 per L”.

In the case of pyrethrins, the “adsorption coefficient KOC” value [2] is given as > 100,000 and the water solubility [1] is given as less than 0.1 µg/mL.

For `[O]=[Zn]` [zinc oxide], the water solubility ([1]; pure water) is given as “about 16 mg/L”.
